Values of other authors, collected in US7354746B1, “Method for producing optically active IHOG and monatin” (Ajinomoto Co., Inc., priority 2006, dated 2008).
Where two headings read alike, the source gives them in different places.

Conditions: for Sweetness (vs. Sucrose): sweetness intensity relative to sucrose

Row | SMILES | Sweetness (vs. Sucrose) | Sweetness rank among the 4 types of monatin isomers (comparison of the 4 monatin isomers) | Sweetness (vs. Sucrose) (listed as (2R, 4R)-monatin)
1 | N[C@H](C[C@@](O)(Cc1c[nH]c2ccccc12)C(=O)O)C(=O)O [2R, 4S] | 1300 times |  | 
2 | NC(CC(O)(Cc1c[nH]c2ccccc12)C(=O)O)C(=O)O [2S, 4S, (2S, 4S)-monatin] | 50 times |  | 
3 | N[C@H](CC(O)(Cc1c[nH]c2ccccc12)C(=O)O)C(=O)O (stereo partly drawn) [2R, 4R, (2R, 4R)-monatin] | 2700 times | highest sweetness | 2,700 times
4 | N[C@@H](C[C@](O)(Cc1c[nH]c2ccccc12)C(=O)O)C(=O)O [2S, 4R, (2S, 4R)-monatin] | 300 times |  | 
